From patent publication US4571393A, “3-Phenoxy-1-azetidinecarboxamides” (A. H. Robins Company, Incorporated, priority 1984, dated 1986)

Assays:
[1] = anticonvulsant activity against Metrazole (pentylenetetrazol) s.c. in mice, method of Swinyard; type: in vivo; settings: for Number Protected / Number Tested: 1/2 hr before 80 mg/kg s.c. Metrazole; for ED50: Mus musculus, ip, 80 mg/kg s.c. Metrazole, probit analysis, read-out: ED50 and (Confidence Limits)
Description: The procedure for testing the compounds for their anticonvulsant activity and comparison with prior art compounds is based on evaluation techniques published by Swinyard, E. A. in EPILEPSIA 10: 107-19 (1969) and in J. PHARMAC. EXPTL. THERAP. 106: 319-30 (1952) as explained in greater detail below.
A comparison was made of anti-convulsant activity of the compound of Example 1 and the prior art methyl analog (U.S. Pat. No. 4,226,861, Example 4) using metrazole as the convulsant by the method of Swinyard (See above citation).
Ninety-six adult female mice weighing 24-32 g were randomly assigned to dosage groups according to the method of Steel, R. G. D. and Torrie, J. H. (1960) in "Principles and Procedures of Statistics," McGraw-Hill Book Company, Inc., pp 99-100, pp 428-31. Each mouse was identified with a color code on its tail. The test compounds were administered as suspensions in 10 ml/kg mouse body weight of 0.5% aqueous methyl cellulose within 15 minutes of preparation of the suspension. Metrazole (pentylenetetrazol) was prepared as a solution in physiological saline. The mice were not fasted prior to the test. Eight mice were tested at each dosage level.
Each mouse received one dose of the test drug in the 0.5% aqueous methylcellulose or the control article (0.5% aqueous methylcellulose alone) intraperitoneally. Metrazole (80 mg/kg S.C.) was then given in a loose fold of skin on the back of the neck; i.e., 1/2 hr after the test compound or control article was given. Injections were given with a 1-ml glass tuberculin syringe with appropriate size hypodermic needle (27 gauge for solutions; 23 gauge for suspensions). All injections were given in a volume of 10 ml/kg mouse body weight. […] Anticonvulsant data were tabulated as the percent protection, i.e., [formula] The ED50 and (95% confidence limits) and potency ratio were ascertained by the computer-based probit analysis ascribed to Finney, D. J. (1964) Statistical Method in Biological Assay., 2nd Ed., New York. Hefner Publishing Co. Results are in Table A. Statistical analysis of the data indicated no significant difference in anti-convulsant potency between the two compounds.
(a) All mice were first injected with 10 ml/kg of 0.5% aqueous
methylcellulose intraperitoneally in which test compound was suspended if
(b) 80 mg/kg Metrazole in 10 ml saline of mouse body weight was
administered to all mice subcutaneously in a loose fold of skin on the
back of the neck onehalf hr. after administration of test compound.

[2] = plasma half-life of elimination, two-way crossover oral/intravenous study in dogs; type: in vivo, mongrel dogs; settings: 10 mg/kg, average of oral and intravenous testing, dog plasma, HPLC; read-out: mean apparent terminal half-life of elimination (converted)
Description: Tests were conducted in order to compare the apparent half-life of elimination in the animal bloodstream of compounds of the present invention with that of the parent prior art compounds of which they are the metabolites as follows:
A two-way crossover study was conducted on male and female adult mongrel dogs. Each dog, after overnight fasting, received a single oral or intravenous dose of 10 mg/kg of test drug in 75% PEG in water and in such concentration that each dog received 1 ml of solution/kg of body weight. Oral doses were administered by using a glass syringe attached to a Levin® tube (size 18 French) which served as the stomach tube. […] Plasma levels of the test drug in the samples were determined by the HPLC method described by Osman, M. A.; Pinchbeck, F. M.; Cheng, L. K.; and Wright, G. J. described in the Journal of Chromatography, 336 (1981). […] The test drug being measured and the internal standard were then extracted from the plasma into a mixture of hexane, methylene chloride and butanol. […] The final solution was chromatographed on a Waters® column C18 reverse-phase system, the samples being analyzed in sequential order starting with the 0-hr sample (control) and proceeding to the 24 hr sample for the same animal. Duplicate assays were carried out for each sample and the mean value was recorded. […]

Structure (SMILES) | Number Protected / Number Tested ([1]; 45 mg/kg i.p.) | Number Protected / Number Tested ([1]; 67 mg/kg i.p.) | Number Protected / Number Tested ([1]; 100 mg/kg i.p.) | Number Protected / Number Tested ([1]; 150 mg/kg i.p.) | ED50 [1] [mg/kg] | half-life [2] [h] | Number Protected / Number Tested ([1]; 225 mg/kg i.p.) | Potency and 95% Confidence Limits ([1]; potency ratio, prior art compound 1.00, i.p.)
CNC(=O)N1CC(Oc2cccc(C(F)(F)F)c2)C1 [Example 4 of U.S. Pat. No. 4,226,861, N-methyl-3-(3-trifluoromethyl) phenoxy-1-azetidinecarboxamide, reference compound] | 1/8 | 2/8 | 3/8 | 8/8 | 90.9 | 1.3 ± 0.4 |  | 
NC(=O)N1CC(Oc2cccc(C(F)(F)F)c2)C1 [Example 1, 3-[3-(Trifluoromethyl)phenoxy]-1-azetidinecarboxamide] | 1/8 | 2/8 | 4/8 | 5/8 | 99.2 | 2.4 ± 0.4 | 8/8 | 0.92
